{
  "source": "patent US9648880B2",
  "about": "“Antifungal agents and uses thereof” (University of Massachusetts, priority 2012, dated 2017)",
  "key": {"SC5314": {"test_system": "SC5314", "assay": "growth rate in liquid culture", "type": "cell-based, Candida albicans", "conditions": "50 μM; liquid YPD, 30° C.", "method": "FIGS. 8A-8B. Characterization of compound #4. FIG. 8A is a graphs showing the IC50 for compound #4 measured using GFP adhesion assay. Assay performed as in FIG. 1D with the indicated concentrations of compound #4. Mean and standard deviations from 4 replicate well measurements are shown. FIG. 8B is a graph showing the effect of compound #4 on growth rate of SC5314 in liquid culture. SC5314 was grown in liquid YPD in a 30° C. shaker in the presence of 1% DMSO or compounds #4, 5, 6, 7 or 8 at 50 μM and the OD600 of the culture was measured at the indicated times. Cultures were also observed in the microscope, and we confirmed that the cells retained the budding yeast morphology during the course of this experiment.\nWe performed several additional experiments to characterize the ability of compound #4 to inhibit Candida adhesion to polystyrene. […] Second, we tested whether compound #4 affects C. albicans cell growth rate. […] Therefore, compound #4 slows C. albicans growth but is minimally toxic to human epithelial cells (FIG. 2C), properties that are desirable for candidate antifungal compounds.\nOvernight cultures of […] were diluted to 0.1 OD/ml in fresh YPD and grown in a 30° C. shaker at 200 RPM in the presence of […] of compounds or 1% DMSO. OD 600 nm was measured during the time course to evaluate growth rate."}, "[1]": {"test_system": "C. elegans infected with C. albicans", "assay": "C. elegans pathogenesis assay", "type": "in vivo, Caenorhabditis elegans", "conditions": "12.5 μM", "method": "We therefore tested whether compound #4 can alter fungal infections in two in vivo settings. First, we performed pathogenesis assays in which nematodes (Caenorhabditis elegans) are infected with C. albicans, resulting in killing of the nematode host (Jain, 2009; Okoli, 2009). We used this assay to test whether compound #4 might have a protective effect, exposing C. elegans to Candida albicans and either DMSO vehicle, the commonly used antifungal drug fluconazole at 12.5 μM, or compound #4 at the same concentration. […] Therefore, consistent with its in vitro activities, compound #4 functions as an antifungal agent in this model infection system.\nThree worms in the L3/L4 stage were transferred to each of two NGM agar plates containing E. coli OP50 and grown at 20° C. for four days. On the day of the experiment, worms were washed off the plates with M9 buffer and centrifuged at 900×g for 2 min. The supernatant was removed, and the worms were then resuspended in a bleach solution (1:4 dilution of commercial bleach (5.25%) diluted in 0.25 M sodium hydroxide). The worm suspension was mixed gently by inversion for 3 min, and centrifuged for 2 min at 2,000×g. The pellet containing the eggs was washed with M9 buffer and centrifuged at 2,000×g for 2 min and then resuspended in 500 μl M9 buffer. […]"}, "Aspergillus fumigatus": {"test_system": "Aspergillus fumigatus", "assay": "Aspergillus hyphal formation", "type": "cell-based", "conditions": "50 μM and 100 μM; RPMI overnight", "method": "FIGS. 26A-26D. Compound #4 inhibits hyphal formation of Aspergillus fumigatus. FIGS. 26A-26B are photographs showing hyphal development occurs normally in RPMI tissue culture media in the absence of treatment (FIG. 26A) and in the presence of 1% DMSO (control; FIG. 26B). Aspergillus hyphal development was inhibited in the presence of 50 μM and 100 μM compound #4 (FIGS. 26C and 26D, respectively).\nCompound #4 was also tested for its inhibitory effect on the growth of Aspergillus fumigatus. Fresh Aspergillus fumigatus conidia (spores) were grown in RPMI tissue culture media overnight in the presence of 1% DMSO (control), 50 μM compound #4, 100 μM compound #4, or no treatment (control) using methods similar to those described in Ramirez-Ortiz et al. (Cell Host & Microbe 9:415-424, 2011). […] This is the first step in germination of the spores, and is required for pathogenesis."}, "C. albicans SC5314 cells": {"test_system": "C. albicans SC5314 cells", "assay": "pretreatment of C. albicans cells, then adhesion assay", "type": "cell-based, Candida albicans", "conditions": "25 μM; alamarBlue or GFP detection", "method": "FIGS. 11A-11D. Compound #4 can coat surfaces and reduce subsequent fungal adhesion. […] is a graph showing the results of pretreatment of polystyrene with candidate compounds. Indicated compounds at 50 μM were incubated in polystyrene 96-well plates overnight. Wells were washed three times with 100 μl of PBS. C. albicans adhesion was then measured using the vital dye alamarBlue, with no additional drug treatment. FIG. 11B is a graph showing titration of compounds #1, 4 and 9 for pre-binding to polystyrene. Indicated concentrations of compounds were pre-incubated with polystyrene plates as above prior to the adhesion assays. FIG. 11C is a graph showing the inhibition of adhesion by pretreatment of C. albicans SC5314 cells with compound #4 prior to introduction to plastic. SC5314 cells were treated with 25 μM compound #4 or DMSO in liquid culture prior to their introduced into polystyrene plates. Cells were washed with PBS prior to resuspension into SCM and seeding into 96-well plates for adhesion assays using alamarBlue detection of remaining cells. […] FIG. 11D is a graph showing the results of an assay performed as in FIG. 11C, except that SC5314-GFP cells were used, and then detected via fluorescence measurement. edt1 indicates non-adherent mutant cells, PBS indicates background fluorescence in absence of cells. […]"}},
  "note": "Entries after “also recorded” stand apart in the source; their conditions may differ.",
  "data": [
    {"smiles": "Cc1ccc(C(=O)N2CCN(c3ccc([N+](=O)[O-])cc3)CC2)cc1Cl", "note": "[Compound 4]", "values": [
      {"measurement": "C. albicans cell growth rate (doubling time)", "setting": "SC5314", "result": "reduced the doubling time"},
      {"measurement": "lifespan of infected worms", "setting": "[1]", "result": "significantly increased survival; also recorded: increased the lifespan of the infected worms"},
      {"measurement": "hyphal formation", "setting": "Aspergillus fumigatus", "result": "blocks hyphal formation at both concentrations tested"},
      {"measurement": "adhesion of pre-treated cells", "setting": "C. albicans SC5314 cells", "result": "could reduce adhesion of pre-treated cells"}
    ]}
  ]
}
